Results reported in patent publication US20100004267A1, “LIQUID PREPARATION” (ASUBIO PHARMA CO., LTD., priority 2006, published 2010).

Test: Reduction in surface activity in SUN N8075 aqueous solution (Test example 7)
Assay type: physicochemical
Set-up: key: A: In 20 minutes; B: In 60 minutes; C: 60 minutes to 3 days; D: Comparable to Control
Protocol: Into each test compound solution which was prepared in advance to achieve each adding concentration shown in the Table, SUN N8075 was added and dissolved so that the concentration thereof was 5 mg/mL, and the pH value was adjusted to 3 to 4 as appropriate by hydrochloric acid to prepare a sample solution.
Each 10 mL of sample solution was put into a 10-mL stoppered test tube, and shaken 30 strokes vertically by hand and allowed to stand upright, and under room diffused light, appearance of sample solution after shaking, foaming property (foaming quantity), defoaming time, post standing observation (after standing for 3 days or more) were evaluated.
As a control, an aqueous solution containing no test substance but containing 5 mg/mL of SUN N8075 was examined in a similar manner.

Defoaming time (Chlorobutanol 0.50%): C
Defoaming time (Chlorobutanol […]): C
Defoaming time (Ethanol 1.00%): C
Defoaming time (Glycine 100 mM): C
Defoaming time (Meglumine 25 mM): C
Defoaming time (Methane sulfonic acid 15 mM): C
Defoaming time (Propylene glycol 1.00%): C
Defoaming time (Sodium L-glutamate 30 mM): C
Defoaming time (Sodium chloride 50 mM): C
Structure (SMILES): Cc1cc(OC[C@@H](O)CN2CCN(c3ccc(Cc4ccc(F)cc4)cc3)CC2)c(C)c(C)c1N [SUN N8075, (2S)-1-(4-amino-2,3,5-trimethylphenoxy)-3-{4-[4-(4-fluorobenzyl)phenyl]-1-piperazinyl}-2-propanol dimethane sulfonate]
